# Measurements: patent US20150290232A1, “DRUG COMPOSITION FOR TREATING TUMORS AND APPLICATION THEREOF” (priority 2012, published 2015)
# Read-outs that look alike come from different tables or passages of the source.
# What was measured:
# [1] = test system: A549 (human lung cancer); assay: MTT cell viability, human solid tumor cells; format: cell-based; details: for IC50: read-out: concentration (IC50 value of 72 hours)
# Protocol: (§1) Well-growing cells of above were obtained and inoculated into wells of a 96-well cell culture plate at 5000 cells/well. Individual compounds of various concentrations were added, mixed uniformly, and incubated (5% CO2) at 37° C. for 72 hours. Then the cell viability was determined by the MTT method.
# (§2) b) Determine the inhibitory effects of TTD in combination with Ada A on the human solid tumor cells. The pretreatment of the cells was the same as in a). The control group was not treated with the compound while administered. […] As to the combination group, two compounds were added together into the same group of wells, with the fmal concentration being the concentration to which the IC50 of the single drugs correspond. After 72 hours of incubation, the MTT method was used for the determination of cell viability. The cell viability of the control group was set to 100% in this experiment, and the TTD, Ada A single drug and combined effects on cell viability (%) were calculated.
# [2] = test system: Panc-1 (pancreatic cancer); assay: MTT cell viability, human solid tumor cells; format: cell-based; details: for IC50: read-out: concentration (IC50 value of 72 hours)
# Protocol: as §1, §2
# [3] = test system: SK-OV-3 (ovarian cancer cell); assay: MTT cell viability, human solid tumor cells; format: cell-based; details: for IC50: read-out: concentration (IC50 value of 72 hours)
# Protocol: as §1, §2
# [4] = test system: A549 transplanted tumor (human non-small cell lung cancer cell line); assay: Example 4: TTD on A549 transplanted tumor in nude mice; format: in vivo, BALB/c-nu nude mice; details: A549, TTD 50 mg/kg/time intragastric, 3 times a day, 10 days, Day 24; for tumor inhibition rate: control = 0
# Protocol: (§3) Under sterile conditions, the above tumor cells were collected in the logarithmic growth phase. A549 was injected by subcutaneous injection in an amount of 1×10 7/0 2 mL/nude mice (cell viability>90%) into the right subaxillary of the nude mice, and Hep G2 was injected by subcutaneous injection in an amount of 1×10^7/0.2 mL/nude mice (cell viability>90%) into the left subaxillary of the nude mice thus establishing transplated tumor models of lung cancer and liver cancer respectively in nude mice. The administration was carried out from the second day after the inoculation. The experimental group was intragastrically administered at the experimentally designed amount, the negative control group is intragastrically administered with sterile water, and the positive control group was intragastrically administered with Jef. Each mouse was intragastrically administered in 0.4 ml each time and 3 times a day, at 8:00, 14:00 and 20:00. The administrations were successive for 10 days. The day before administration was deemed as Day 0 and the body weight and tumor size of the mice were determined every 5 days to produce a dynamic plot on body weight and tumor growth. On Day 24, the mice were sacrificed and the tumors were taken out and weighed. The tumor inhibition rate (%) was calculated after the effect of the medicament based on a tumor inhibition rate of the control group being zero.
# (§4) The values determined were presented as mean±standard error (Mean±SD). The experimental data for each group was analyzed with One-way ANOVA method in the SPSS 18.0 statistical software, and p<0.05 means that the differences are statistically significant.
# [5] = test system: Hep G2 transplanted tumor (human hepatoma carcinoma cell); assay: Example 4: TTD on Hep G2 transplanted tumor in nude mice; format: in vivo, BALB/c-nu nude mice; details: Hep G2, TTD 50 mg/kg/time intragastric, 3 times a day, 10 days, Day 24
# Protocol: as §3, with “The experimental group was intragastrically administered at the experimentally designed amount, the negative control group is intragastrically administered with sterile water, and the positive control group was intragastrically administered with Jef. Each mouse was intragastrically administered in 0.4 ml each time and 3 times a day, at 8:00, 14:00 and 20:00. The administrations were successive for 10 days.” left out, “On Day 24, the mice were sacrificed and the tumors were taken out and weighed.” left out
# as §4
# [6] = test system: A549 transplanted tumor (human non-small cell lung cancer cell line); assay: Example 5: Acla A on A549 transplanted tumor in nude mice; format: in vivo, BALB/c-nu nude mice
# Protocol: (§5) Under sterile conditions, the above tumor cells were collected in the logarithmic growth phase. A549 was injected by subcutaneous injection in an amount of 6×10 6/0.2 mL/nude mice (cell viability>90%) into the right subaxillary of the nude mice, thus establishing transplated tumor models of lung cancer in nude mice. The mice were administered from the second day after the inoculation. The experimental group was intragastrically administered at the experimentally designed amount, the negative control group was intragastrically administered with sterile water, and the positive control group is intragastrically administered with Jef. Each mouse was intragastrically administered in 0.4 ml each time and 2 times a day, at 8:00, and 14:00. The administrations were successive for 14 days. The day before administration was deemed as Day 0 and the body weight and tumor size of the mice were determined every 5 days to produce a dynamic plot on body weight and tumor growth. On Day 20, the mice were sacrificed and the tumors were taken out and weighed. The tumor inhibition rate (%) was calculated after the effect of the medicament based on a tumor inhibition rate of the control group being zero.
# as §4
# [7] = Example 5: body weight of tumor-bearing nude mice; format: in vivo, BALB/c-nu nude mice
# Protocol: as §5, with “The experimental group was intragastrically administered at the experimentally designed amount, the negative control group was intragastrically administered with sterile water, and the positive control group is intragastrically administered with Jef.” left out
# as §4
# [8] = test system: leukemic cell lines L1210 and P388; details: mice inoculated with L1210 and P388, 0.5-5 mg/kg/day for 10 consecutive days; cited from earlier work
# [9] = test system: mouse leukemia P388 and human gastric cancer cell line SGC-7901; details: 0.01 μg/ml, in vitro; cited from earlier work
# [10] = test system: leukemia mice; details: cited from earlier work
# [11] = test system: acute lymphoblastic leukemia (ANLL); details: initial treatment of ANLL; cited from earlier work
# [12] = rats, cited from earlier work
compound,measurement,setting,value
"COc1ccc2cc1Oc1ccc(cc1)C[C@H]1c3cc(c(OC)cc3CCN1C)Oc1c(OC)c(OC)cc3c1[C@H](C2)N(C)CC3 [TTD, tetrandrine]",viability at 8.34 µg/mL,"[1]; A549, TTD 8.34 μg/mL, 72 h, MTT, control = 100%, read-out: CV (cell viability)",47.6%
same,IC50,"[1]; A549, single compound, 72 h, MTT",8.34 µg/mL
same,viability at 4.67 µg/mL,"[2]; Panc-1, TTD 4.67 μg/mL, 72 h, MTT, control = 100%, read-out: CV (cell viability)",52.3%
same,IC50,"[2]; Panc-1, single compound, 72 h, MTT",4.67 µg/mL
same,viability at 5 µg/mL,"[3]; SK-OV-3, TTD 5 μg/mL, 72 h, MTT, control = 100%, read-out: CV (cell viability)",55.9%
same,IC50,"[3]; SK-OV-3, single compound, 72 h, MTT",5 µg/mL
same,Mass of tumor,[4]; Mean ± SD,0.23 ± 0.35 g
same,tumor inhibition rate,[4],up to 38%
same,tumor inhibition rate,[4]; listed as TTD50,38.02%
same,Mass of tumor,[5]; Mean ± SD,0.53 ± 0.32 g
same,tumor inhibition rate,[5]; control = 0,−33.36%
"CC[C@@]1(O)C[C@H](O[C@H]2C[C@H](N(C)C)[C@H](O[C@H]3C[C@H](O)[C@H](O[C@H]4CCC(=O)[C@H](C)O4)[C@H](C)O3)[C@H](C)O2)c2c(cc3c(c2O)C(=O)c2c(O)cccc2C3=O)[C@H]1C(=O)OC [Acla A, aclarubicin A]",viability at 0.08 µg/mL,"[1]; A549, 72 h, read-out: CV (cell viability)",50.4%
same,IC50,"[1]; A549, 72 h",0.08 µg/mL
same,viability at 0.25 µg/mL,"[2]; PANC-1, 72 h, read-out: CV (cell viability)",58%
same,IC50,"[2]; PANC-1, 72 h",0.25 µg/mL
same,viability at 0.25 µg/mL,"[3]; SK-OV-3, 72 h, read-out: CV (cell viability)",53.4%
same,IC50,"[3]; SK-OV-3, 72 h",0.25 µg/mL
same,inhibitory effect on lung cancer transplanted tumor (in words),"[6]; A549, Acla A 1 mg/kg/time",did not exhibit good inhibitory effect
same,Mass of tumor,"[6]; A549, Acla A 1 mg/kg/time intragastric, 2 times a day, 14 days, Day 20, Mean ± SD",0.50 ± 0.19 g
same,tumor inhibition rate,"[6]; A549, Acla A 1 mg/kg/time intragastric, 2 times a day, 14 days, Day 20, control = 0",−51.52%
same,"body weight, Final","[7]; Acla A 1 mg/kg/time intragastric, 2 times a day, 14 days, Day 20, Mean ± SD, n=3",18.5 ± 1.10 g
same,"body weight, Initial","[7]; Acla A 1 mg/kg/time intragastric, 2 times a day, 14 days, Mean ± SD, n=3",21.0 ± 0.23 g
same,dynamic variation of the body weight (in words),"[7]; Acla A 1 mg/kg/time, during administration, recovered gradually after termination",partial reduction in the body weight
same,"survival rate increased, compared with mice without antibiotics injection",[8],150%
same,cloning formation inhibited,[9],65.4%
same,prolonging the lifetime of the mice,[10],143%
same,complete remission rate (CR),[11],up to 70%
same,half-life t1/2,[12]; intravenous injection,16 to 21 h
same,bioavailability,[12]; oral administration,35%
same,biological half-life t1/2,[12]; oral administration,36.5 h
